Test results taken from US12594335B2, “Platinum-based drug-/photosensitizer-loaded protein nanoparticle, and preparation method therefor and application thereof” (SOOCHOW UNIVERSITY, priority 2020, dated 2026).

Tests used:
[1] = Serum biochemical indexes of liver and kidney functions; format: in vivo, Balb/c mice; conditions: 5 mg/kg Pt i.v. every other day, 3 times; serum on day 7, 14, 21, 28
Excerpt: Inspection of biochemical indexes after action of nanoparticles: In order to determine the toxicity of drugs during metabolism in vivo, biochemical indexes of liver and kidney functions were investigated. […]

[2] = Photostability under 660 nm laser irradiation; format: physicochemical
Experimental: (2) Photostability of nanoparticles: taking 0.1 mL of a nanoparticle solution with the concentration of Ce6 at 20 μmol/L and 0.1 mL of a free Ce6 solution with a concentration of 20 μmol/L, respectively, and adding them respectively to 2.9 mL of pure water, a phosphate buffer with pH 5.5, and a phosphate buffer with pH 7.4; and using a 660 nm laser with the power of 0.15 W/cm^2 to irradiate the solutions once every 30 s, and immediately measuring the ultraviolet absorption value with a UV-vis spectrophotometer until full 5 min of irradiation.

[3] = In-vitro chemical stability (UV absorbance of Ce6 within 72 h); format: physicochemical; conditions: water, phosphate buffer pH 5.5, pH 7.4, culture medium with 10% fetal bovine serum
Experimental: In-vitro stability of nanoparticles: (1) Chemical stability of nanoparticles: taking 0.1 mL of a nanoparticle solution with the concentration of Ce6 at 20 μmol/L and 0.1 mL of a free Ce6 solution with a concentration of 20 μmol/L, respectively, and adding them respectively to 2.9 mL of pure water, a phosphate buffer with pH 5.5, a phosphate buffer with pH 7.4, and a RPMI 1640 culture medium containing 10% fetal bovine serum; and storing at room temperature and away from light, with 3 copies for each environment. A UV-vis spectrophotometer was used to measure the absorbance change of Ce6 within 72 h.

| photostability ([2]; 0.15 W/cm^2, up to 5 min, deionized water, pH 5.5 and pH 7.4 buffers) | time to completed photobleaching ([2]; acidic environment, 0.15 W/cm^2) [s] | decrease of UV absorption with time [3] | Compound | kidney indexes Urea and Crea [1] | liver indexes (ALT, AST, ALP) [1] |
| --- | --- | --- | --- | --- | --- |
|  |  |  | N.N.[Cl][Pt][Cl] [free CDDP, cis-dichlorodiammine platinum (II)] | increased rapidly | changed greatly |
| photobleached quickly | ≤ 120 | 20%-40% | chlorin e6 [free Ce6] |  |  |
